Experimental data reported in patent US9452154B2, “Methods for treating HCV” (Gilead Sciences, Inc., priority 2010, dated 2016).
“And” between values parts separate entries of the source, which are not always exact repeats. Identical values can stand only once. Like-named read-outs stand apart in the source and are kept apart here. Marks after values point to notes of the source that are not given here.

Legend:
HCV genotype 1a replicon [1] = assay: Biological Example 3: HCV genotype 1a replicon assay, EC50; assay type: cell-based; details: IFN-α in Units (U) per milliliter (mL)
Experimental: The HCV genotype 1a replicon cell line used in this study was described previously. The cells were grown in cell culture medium containing Dulbecco's Modified Eagle Medium (DMEM) with GlutaMAX (Gibco, Carlsbad, Calif., Cat#10569-044), supplemented with 10% FBS (HyClone, Logan, Utah, Cat#SH30071.03), 100 Units/mL Penicillin, 100 μg/mL Streptomycin (Gibco, Carlsbad, Calif., Cat#15140-122), and 0.1 mM non-essential amino acids (Gibco, Carlsbad, Calif., Cat#11140-050). Replicon cells were maintained in 0.5 mg/mL Geneticin (Invitrogen, Carlsbad, Calif., Cat#10131-035) to prevent the loss of HCV replicon. The cells were passaged every 3-4 days before reaching confluency.
(§1) [formula] where XC is the fluorescence signal from the compound-treated well; MB is the average fluorescence signal from puromycin-treated wells; MD is the average fluorescence signal from DMSO-treated wells. The anti-HCV replication activity was determined by the luminescence signal generated from the reporter renilla luciferase of the HCV replicon. The percent inhibition on HCV replicon was calculated using equation 1, where XC is the luminescence signal from compound-treated well; MB is average luminescence signal from the ITMN-191-treated wells; MD is the average luminescence signal from DMSO-treated wells.
(§2) Both CC50 and EC50 values were obtained using Pipeline Pilot 5.0 software package (Accelrys, San Diego, Calif.) by nonlinear regression fitting of experimental data to equation 2: […]

[2] = test system: Huh-7 cells carrying a HCV genotype 1a replicon; assay: Biological Example 3: cytotoxicity (calcein AM), CC50; assay type: cell-based; details: HCV genotype 1a replicon cells; IFN-α in Units (U) per milliliter (mL)
Experimental: The HCV replicon assay was a multiplex assay which can assess both cytotoxicity and anti-replicon activity from the same well. The CC50 assay was performed first.
The cytotoxicity effect was determined by calcein AM conversion to fluorescent product. The percent cytotoxicity was calculated by equation 1:
as §1, §2

HCV 1b replicon system = assay: Biological Example 5: antiviral combination studies with Compound 6 (MacSynergy II); assay type: cell-based; details: in combination with Compound 6
[3] = test system: NS3 GT1a mutant replicons; assay type: cell-based, HCV
Experimental: (§3) GT1b and GT1a replicons carrying Renilla Luciferase reporter were used to generate the mutant replicons. The mutations were introduced into the replicon construct by site-directed mutagenesis and confirmed by sequencing. Mutant replicon RNAs were generated from DNA by in vitro transcription and transfected into Huh-7 Lunet or C1 cells
(§4) Compounds were serially diluted 1:3 in 100% DMSO (Sigma). These serial dilutions were added to the cells at a 1:200 dilution to achieve a final concentration of 0.5% DMSO in a total volume of 200 μL. […] EC50 values were calculated using Prism.
(§5) For comparison, a fold change of 0-3 is considered “sensitive”, a fold change of 3-10 is considered “low”, a fold change of 10-50 is considered “medium” and a fold change of greater than […] is considered “high”.

[4] = test system: NS3 GT1b mutant replicons; assay type: cell-based, HCV
Experimental: as §3, §4, §5

[5] = test system: GT1b and GT1a mutant replicons; assay: Biological Example 8: summary of cross resistance of mutant replicons; assay type: cell-based, HCV
Experimental: as §3, §4, §5

[6] = test system: Huh-7 cells carrying a HCV genotype 1a replicon; assay: Biological Example 3: cytotoxicity in combination studies (MacSynergy II); details: in combination with Compound 4
HCV genotype 1a replicon [7] = assay: Biological Example 3: antiviral combination studies with Compound 4 (MacSynergy II); details: in combination with Compound 4

IFN-α [reference compound]
EC50 (HCV genotype 1a replicon [1]): 1.4 ± 0.3^b U/mL | CC50 [2]: >50^b U/mL | Antagonism Volume (HCV 1b replicon system): 0.0 ± 0.0 nM^2 | Interaction (HCV 1b replicon system): Minor Synergy | Synergy Volume (HCV 1b replicon system): 32 nM^2 and 32 ± 1.4 nM^2 | fold change in EC50 vs wild-type GT1a ([3]; mutant A156T): 0.1 fold | fold change in EC50 vs wild-type GT1a ([3]; mutant D168A): 1.4 fold | fold change in EC50 vs wild-type GT1a ([3]; mutant D168E): 2.1 fold | fold change in EC50 vs wild-type GT1a ([3]; mutant D168G): 0.8 fold | fold change in EC50 vs wild-type GT1a ([3]; mutant D168H): 0.9 fold | fold change in EC50 vs wild-type GT1a ([3]; mutant D168N): 1.1 fold | fold change in EC50 vs wild-type GT1a ([3]; mutant D168V): 1.0 fold | fold change in EC50 vs wild-type GT1a ([3]; mutant D168Y): 1.2 fold | fold change in EC50 vs wild-type GT1a ([3]; mutant R155I): 0.6 fold | fold change in EC50 vs wild-type GT1a ([3]; mutant R155K): 0.7 fold | fold change in EC50 vs wild-type GT1a ([3]; mutant R155K + L31M): 0.2 fold | fold change in EC50 vs wild-type GT1a ([3]; mutant R155K + M28T): 1.1 fold | fold change in EC50 vs wild-type GT1a ([3]; mutant R155K + Q30H + Y448H): 1.9 fold | fold change in EC50 vs wild-type GT1a ([3]; mutant R155K + Q30R): 1.6 fold | fold change in EC50 vs wild-type GT1a ([3]; mutant R155K + Y93H): 0.3 fold | fold change in EC50 vs wild-type GT1a ([3]; mutant R155K + Y488H (second line, r26)): 0.7 fold | fold change in EC50 vs wild-type GT1a ([3]; mutant R155M): 0.3 fold | fold change in EC50 vs wild-type GT1a ([3]; mutant R155S): 0.1 fold | fold change in EC50 vs wild-type GT1a ([3]; mutant R155T): 0.2 fold | fold change in EC50 vs wild-type GT1a ([3]; mutant R155W): 0.6 fold | fold change in EC50 vs wild-type GT1a ([3]; mutant R155k + Q30H): 1.4 fold | fold change in EC50 vs wild-type GT1b ([4]; mutant A156D): 0.6 fold | fold change in EC50 vs wild-type GT1b ([4]; mutant A156G): 1.1 fold | fold change in EC50 vs wild-type GT1b ([4]; mutant A156T): 0.8 fold | fold change in EC50 vs wild-type GT1b ([4]; mutant A156V): 0.9 fold | fold change in EC50 vs wild-type GT1b ([4]; mutant D168A): 0.9 fold | fold change in EC50 vs wild-type GT1b ([4]; mutant D168E): 0.9 fold | fold change in EC50 vs wild-type GT1b ([4]; mutant D168E + L31V + Y448H): 0.7 fold | fold change in EC50 vs wild-type GT1b ([4]; mutant D168E + Y93H + Y448H): 0.4 fold | fold change in EC50 vs wild-type GT1b ([4]; mutant D168G): 0.6 fold | fold change in EC50 vs wild-type GT1b ([4]; mutant D168H): 0.8 fold | fold change in EC50 vs wild-type GT1b ([4]; mutant D168N): 1.0 fold | fold change in EC50 vs wild-type GT1b ([4]; mutant D168T): 0.9 fold | fold change in EC50 vs wild-type GT1b ([4]; mutant D168V): 1.5 fold | fold change in EC50 vs wild-type GT1b ([4]; mutant D168V + L31V + Y448H): 0.5 fold | fold change in EC50 vs wild-type GT1b ([4]; mutant D168V + Y93H + Y448H): 0.6 fold | fold change in EC50 vs wild-type GT1b ([4]; mutant D168Y): 1.3 fold | fold change in EC50 vs wild-type GT1b ([4]; mutant L31V + D168E): 1.3 fold | fold change in EC50 vs wild-type GT1b ([4]; mutant L31V + D168V): 1.2 fold | fold change in EC50 vs wild-type GT1b ([4]; mutant R155C): 0.7 fold | fold change in EC50 vs wild-type GT1b ([4]; mutant R155G): 1.1 fold | fold change in EC50 vs wild-type GT1b ([4]; mutant R155K): 1.5 fold | fold change in EC50 vs wild-type GT1b ([4]; mutant R155L): 1.1 fold | fold change in EC50 vs wild-type GT1b ([4]; mutant R155Q): 0.6 fold | fold change in EC50 vs wild-type GT1b ([4]; mutant R155W): 0.5 fold | fold change in EC50 vs wild-type GT1b ([4]; mutant Y93H + D168E): 1.1 fold | fold change in EC50 vs wild-type GT1b ([4]; mutant Y93H + D168V): 0.7 fold | susceptibility of mutants ([5]; all single NS3 PI-resistant mutants): full susceptibility | susceptibility of mutants ([5]; triple class mutants that confer resistance to PI, NS5A and Compound 1): susceptible | Antagonism Volume (cytotoxicity) [6]: −7 ± 13 nM^2% | Interaction (cytotoxicity) [6]: Additivity (Additivity: ≦25 and >−25 nM^2%) | Synergy Volume (cytotoxicity) [6]: 8 ± 12 nM^2% | Antagonism Volume (HCV genotype 1a replicon [7]): 0 ± 0 nM^2% | Interaction (HCV genotype 1a replicon [7]): Additivity (Additivity: ≦25 and >−25 nM^2%) | Synergy Volume (HCV genotype 1a replicon [7]): 12 ± 6 nM^2%
